# Like-named read-outs stand apart in the source and are kept apart here.
# How the values were obtained:
# CB2 receptors = test: estimated affinity relative to CBD; format: binding
# Excerpt: Because CB2 receptors have a low affinity for CBD, large doses of CBD have increasingly advantageous pharmacological effects. However, CBD is relatively expensive, so the ratio of CBD to other components is more prone to cost/efficacy trade-offs than other components of the formulation. Alternatives can skimp on CBD and even drop the ratio of CBD-to-caffeine below the recommended 1:1 ratio, which should have acceptable effects so long as the caffeine is not in such a high dosage that it causes jitters.
# A greater proportion of CBD may be desirable for the purpose of binding to theorized CBD3 receptors or other presently poorly defined receptors with less affinity for CBD. A high dose of CBD, over 100 mg up to less than 250 mg can have a sedative effect that may be effective for certain individuals, though it is unlikely desirable to reach 250 mg, which is approaching the liver enzyme inhibition dose. Although, currently marketed energy drinks have as much as 250 mg caffeine, it would be difficult to fit that much caffeine into a nurdle while maintaining a 1:1 ratio of CBD-to-caffeine (not to mention the 1:2 ratio of caffeine-to-theanine), so the upper ranges of CBD become largely irrelevant in this particular product due to volumetric constraints. […]
# [1] = bioavailability after oral, mucosal/buccal or enteric delivery; format: in vivo
# Procedure: B6 helps the body produce neurotransmitters (e.g., serotonin); it can block glutamate and help the brain learn to calm. […] B6 can also be delivered enterically with nearly 100% bioavailability, as well.
# In a specific implementation, microencapsulated CBD is provided as an analgesic in an edible toothpaste. In this specific implementation, 20 mg of the CBD is microencapsulated for buccal delivery to act as a localized analgesic in the mouth. CBD is degraded in the stomach but, as was discussed above, CBD is readily absorbed in mucosa. Although it is recognized not all patients will follow best practices, bioavailability estimates assume the amount of time spent brushing is 2 minutes, which is the time span over which the edible toothpaste remains in the mouth and which is long enough to make almost all of CBD formulated for buccal delivery bioavailable. Accordingly, when the product is used as directed, the CBD remains in the mouth long enough to achieve over 90% bioavailability. Thus, the amount of buccally delivered CBD can be added to that of enterically delivered CBD to determine a total systemic dose.
# As with the edible toothpaste described above, a first portion of the CBD is formulated for buccal delivery and a second portion of the CBD is formulated for enteric delivery. […] CBD is degraded in the stomach but, as was discussed above, CBD is readily absorbed in mucosa. […]
# [2] = cited from earlier work
# TrpV1 receptor = molecular target: T1, TrpV1 receptor (Homo sapiens, UniProt Q8NER1); details: absorbed through mucosa; cited from earlier work
# T1 construct: It typically takes over 20 minutes for CBD absorbed through mucosa to provide significant pain relief; from tissue; host or cells: oral mucosa / body of the user (in vivo)
# T1 sequence (Q8NER1 whole entry): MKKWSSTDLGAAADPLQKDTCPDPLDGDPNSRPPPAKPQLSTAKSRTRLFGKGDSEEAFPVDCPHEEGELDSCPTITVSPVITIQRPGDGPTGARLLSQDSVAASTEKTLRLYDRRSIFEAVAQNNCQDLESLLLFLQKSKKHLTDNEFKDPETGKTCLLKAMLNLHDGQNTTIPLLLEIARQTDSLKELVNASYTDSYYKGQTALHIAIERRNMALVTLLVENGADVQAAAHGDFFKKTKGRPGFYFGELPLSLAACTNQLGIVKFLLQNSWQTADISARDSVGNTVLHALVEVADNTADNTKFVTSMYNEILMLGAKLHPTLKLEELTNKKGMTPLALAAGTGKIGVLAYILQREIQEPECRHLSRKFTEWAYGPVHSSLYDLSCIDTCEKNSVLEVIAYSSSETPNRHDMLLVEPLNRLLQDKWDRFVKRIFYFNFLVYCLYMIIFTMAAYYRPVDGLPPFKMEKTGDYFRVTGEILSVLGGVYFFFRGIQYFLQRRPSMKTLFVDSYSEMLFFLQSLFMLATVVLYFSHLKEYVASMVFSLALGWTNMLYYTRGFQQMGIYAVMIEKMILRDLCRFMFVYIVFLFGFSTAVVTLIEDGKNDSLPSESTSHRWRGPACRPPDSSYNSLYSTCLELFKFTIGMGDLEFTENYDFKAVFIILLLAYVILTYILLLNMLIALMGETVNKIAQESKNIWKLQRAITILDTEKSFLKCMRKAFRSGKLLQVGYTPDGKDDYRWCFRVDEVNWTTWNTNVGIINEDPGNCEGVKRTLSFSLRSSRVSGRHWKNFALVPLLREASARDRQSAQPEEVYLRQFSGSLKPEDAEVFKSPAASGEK
# [3] = in vivo; cited from earlier work
# [4] = mucosal quick release, retained in the mouth for several seconds; cited from earlier work
compound,measurement,setting,value
2-Lineoleoyl-glycerol,affinity relative to CBD,CB2 receptors,"~1,000 times"
2-Palmitolyl-glycerol,affinity relative to CBD,CB2 receptors,"~1,000 times"
C=C(C)[C@@H]1CCC(C)=C[C@H]1c1c(O)cc(CCCCC)cc1O [CBD],bioavailability,"[1]; buccal delivery from edible toothpaste, estimate assumes 2 minutes brushing",over 90%
same,bioavailability,"[1]; buccal delivery from mouthwash, estimate assumes 30 seconds to one minute in the mouth",over 90%
same,half-life in the bloodstream,[2]; frequent user,5 to 13 days
same,half-life in the bloodstream,[2]; infrequent user,about 1.3 days
same,time to provide significant pain relief,TrpV1 receptor,over 20 minutes
CC1CCC(C(C)C)C(O)C1 (stereo not drawn) [menthol],lethal dose,[3],≥ 50 mg/kg
CCCCCCCCCCCCCCCC(=O)OCc1cnc(C)c(OC(=O)CCCCCCCCCCCCCCC)c1COC(=O)CCCCCCCCCCCCCCC [pyridoxine tripalmitate],bioavailable,[4],over 90%

# — patent publication US20230149303A1, “BUCCAL AND ENTERIC DELIVERY OF FATTY ACIDS IN FOODS AND BEVERAGES” (priority 2020, published 2023)
